Seven compounds from patent publication US8617604B2, “Pharmaceutical compositions with enhanced performance” (Bend Research, Inc., priority 2005, dated 2013) can be followed below.

Like-named read-outs stand apart in the source and are kept apart here.

Data set [1] can be described thus: Microcentrifuge dissolution test. It is filed as physicochemical.
Data set [2] in a line: In vitro membrane permeation test (maximum flux of drug across membrane). The following applies: 100 μgA/mL; for Maximum Flux of Drug 5: Table 15, feed 0.5 wt % NaTC/POPC, permeate 60 wt % decanol in decane.
From the text: An Accurel® PP 1E microporous polypropylene membrane was obtained from Membrana GmbH (Wuppertal, Germany). The membrane was washed in isopropyl alcohol and rinsed in methanol in a sonicating bath for one minute at ambient temperature, and then allowed to air dry at ambient temperature. The feed side of the membrane was then plasma-treated to render it hydrophilic by placing a sample of the membrane in a plasma chamber. The atmosphere of the plasma chamber was saturated with water vapor at a pressure of 550 mtorr. A plasma was then generated using radio frequency (RF) power inductively coupled into the chamber via annular electrodes at a power setting of 50 Watts for 45 seconds. The contact angle of a drop of water placed on the surface of the plasma-treated membrane was about 40°. The contact angle of a drop of water placed on the permeate side of the same membrane was greater than about 110°.
A permeate reservoir was formed by capping the open end of a glass tube having an inside diameter of about 2 54 cm by gluing a sample of the plasma-treated membrane to the tube using an epoxy-based glue (LOCTITE® E-30CL HYSOL® from Henkel Loctite Corp, Rocky HUI, Conn.). The membrane was oriented so that its feed side was on the outside of the permeate reservoir and its permeate side was on the inside of the reservoir. The effective membrane area of the membrane capping the permeate reservoir was about 4.9 cm^2. The permeate reservoir was placed into a glass feed reservoir. The feed reservoir was equipped with a magnetic stir bar and the reservoir was placed on a stir plate and the stir rate was set to 100 rpm during the test. The apparatus was placed into a chamber maintained at 37° C. for the duration of the test.
To this was added 5 mL of an aqueous solution designed to model the fed state, consisting of a Phosphate Buffered Solution (PBS) containing 29.2 mM or 2 wt % sodium taurocholic acid and 5.6 mM of 1-palmitoyl-2-oleyl-sn-glycero-3-phosphocholine (NaTC/POPC). […] The feed solution was mixed using a vortex mixer for 1 minute. Before the membrane contacted the feed solution, 5 mL of 20 wt % decanol in decane was placed into the permeate reservoir. Time zero in the test was when the membrane was placed in contact with the feed solution. A 50 μL aliquot of the permeate solution was collected at 20, 40, 60, 90, 120, 180, 240, and 350 minutes. Samples were then diluted in 250 μL isopropyl alcohol and analyzed using HPLC.
The maximum flux of drug across the membrane (in units of μgA/cm^2-min) was determined by performing a least-squares fit to the data to obtain the maximum slope, multiplying the slope by the permeate volume (5 mL), and dividing by the membrane area (4.9 cm^2).
The maximum flux of drug across the membrane (in units of μgA/cm^2-min) was determined by estimating the tangent to the concentration versus time curve at time 0.
To this was added 5 mL of the Model Fasted Duodenum (MFD) solution consisting of Phosphate Buffered Saline (PBS) solution containing 7.3 mM sodium taurocholic acid and 1.4 mM of 1-palmitoyl-2-oleyl-sn-glycero-3-phosphocholine (0.5% NaTC/POPC). […] The feed solutions were each mixed using a vortex mixer for 1 minute. Before the membrane contacted the feed solutions, 5 mL of 20 wt % decanol in n-decane was placed into the permeate reservoir. Time zero in the test was when the membrane was placed in contact with the feed solution. […] Samples were then diluted in 250 μL isopropyl alcohol and analyzed using HPLC.
The nature of data set [3]: Aqueous solubility of the drugs. It is filed as physicochemical. The following applies: aqueous medium (not specified further).
[4] abbreviates: Table 18, Drug 1, PBS pH 6.5, 37° C., 1000 μgA/mL.
Where [5] appears, read: Table 20, Drug 1, microcentrifuge dissolution test described above.
[6] abbreviates: Table 19, Drug 2, MFD solution, 1000 μgA/mL.

`CCOC(=O)N1c2ccc(C(F)(F)F)cc2[C@@H](N(Cc2cc(C(F)(F)F)cc(C(F)(F)F)c2)C(=O)OC)C[C@H]1CC` [Control C1]: the “Maximum Flux of Drug 1” value by setting is: (120 μg/mL) 0.091 μgA/cm^2-min; (120 μgA/mL) 0.08 μgA/cm^2-min. The AUC90 in data set [1] (Table 11, Drug 1, PBS pH 6.5, 37° C., area under the curve from 0 to 90 minutes) is listed as <88 min · μgA/mL; in data set [1] (setting [4]), <100 min · μgA/mL; in data set [1] (setting [5]), <100 min · μgA/mL. In addition, the MDC90 in data set [1] (Table 11, Drug 1, PBS pH 6.5, 37° C., maximum drug concentration between 0 and 90 minutes) was <1 μgA/mL; in data set [1] (setting [4]) it was <1 μgA/mL; in data set [1] (setting [5]), <1 μgA/mL.
In the case of `O=C(NOCC1CC1)c1ccc(F)c(F)c1Nc1ccc(I)cc1Cl` [Control C2], in data set [1] (setting [6]), the AUC90 stood at 4200 min · μgA/mL and the MDC90 stood at 101 μgA/mL.
On to `O=C1Cc2cc(CCN3CCN(c4nsc5ccccc45)CC3)c(Cl)cc2N1` [Control C4], for which the “Maximum Drug Flux” value in data set [2] (Table 21, Drug 4, feed 0.5% NaTC/POPC (MFD), permeate 60 wt % decanol in n-decane) worked out at 0.16 μgA/cm^2-min.
Regarding `O=C1Cc2cc(CCN3CCN(c4nsc5ccccc45)CC3)c(Cl)cc2N1` [Control C5], in data set [2], the “Maximum Flux of Drug 5” value turned out to be 0.099 μgA/cm^2-min.
On the same count and under the same terms, under `O=C1Cc2cc(CCN3CCN(c4nsc5ccccc45)CC3)c(Cl)cc2N1` [Control C6] stands 0.07 μgA/cm^2-min.
Usually solubility stands for the concentration that dissolves in the medium under given conditions. With `CCOC(=O)N1c2ccc(C(F)(F)F)cc2[C@@H](N(Cc2cc(C(F)(F)F)cc(C(F)(F)F)c2)C(=O)OC)C[C@H]1CC` [Drug 1, [2R,4S]-4[(3,5-bis-trifluoromethyl-benzyl)-methoxycarbonyl-amino]-2-ethyl-6-trifluoromethyl-3,4-dihydro-2H-quinoline-1-carboxylic acid ethyl ester], the solubility in data set [3] is < 0.1 µg/mL.
In the case of `O=C1Cc2cc(CCN3CCN(c4nsc5ccccc45)CC3)c(Cl)cc2N1` [Drug 4], the solubility is < 0.1 µg/mL in data set [3] (free base form) and ~10 µg/mL in data set [3] (hydrochloride salt form).
